# Several values for one entry are separate records, joined by “and”; a condition that tells them apart may be missing. Equal values may be shown once. Read-outs that look alike come from different tables or passages of the source.
# Target: T1, METTL3/METTL14 (Homo sapiens, UniProt Q86U44)
# T1 construct: made in house; host or cells: Sf9 insect cells (baculovirus)
# Assay: METTL3 enzymatic inhibition assay by homogeneous time-resolved fluorescence (HTRF)
# Assay type: biochemical
# Conditions: for IC50: HTRF assay; for fold improvement in affinity (IC50) vs compound 4: relative to reference compound 4; for S/R Ratio: ratio of IC50 of S isomer to R isomer
# Experimental: Compound potencies were evaluated by using a previously reported METTL3 inhibition assay. […] Tested compounds that inhibit METTL3 decrease the m^6A level and thus reduce the HTRF signal. The biochemical assay was performed, as described previously.[19] The IC50 values derived from fitting a dose–response curve to the data using nonlinear regression. The IC50 values are given as an average of at least two independent measurements for each compound in the text.
# [1] = racemic mixture, read-out: IC50
# [2] = R isomer, read-out: IC50 (µM) R
# [3] = S isomer, read-out: IC50 (µM) S
# T1 sequence (Q86U44 whole entry): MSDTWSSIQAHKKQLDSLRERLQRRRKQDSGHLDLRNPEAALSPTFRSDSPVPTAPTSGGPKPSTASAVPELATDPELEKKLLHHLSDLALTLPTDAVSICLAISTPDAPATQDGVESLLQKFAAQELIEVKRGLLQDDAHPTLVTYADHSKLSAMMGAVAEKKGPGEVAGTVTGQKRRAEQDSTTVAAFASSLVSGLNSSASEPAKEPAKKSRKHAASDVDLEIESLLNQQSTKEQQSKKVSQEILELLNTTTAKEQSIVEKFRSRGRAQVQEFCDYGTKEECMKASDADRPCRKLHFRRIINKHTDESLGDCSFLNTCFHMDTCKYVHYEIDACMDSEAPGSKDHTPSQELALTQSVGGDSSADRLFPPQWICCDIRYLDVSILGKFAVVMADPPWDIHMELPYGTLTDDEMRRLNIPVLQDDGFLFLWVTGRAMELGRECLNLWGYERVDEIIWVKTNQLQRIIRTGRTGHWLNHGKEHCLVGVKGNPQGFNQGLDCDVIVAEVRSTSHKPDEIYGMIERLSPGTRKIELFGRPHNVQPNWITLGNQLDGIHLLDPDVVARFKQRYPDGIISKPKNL
# T1 sequence (Q9HCE5 whole entry partner): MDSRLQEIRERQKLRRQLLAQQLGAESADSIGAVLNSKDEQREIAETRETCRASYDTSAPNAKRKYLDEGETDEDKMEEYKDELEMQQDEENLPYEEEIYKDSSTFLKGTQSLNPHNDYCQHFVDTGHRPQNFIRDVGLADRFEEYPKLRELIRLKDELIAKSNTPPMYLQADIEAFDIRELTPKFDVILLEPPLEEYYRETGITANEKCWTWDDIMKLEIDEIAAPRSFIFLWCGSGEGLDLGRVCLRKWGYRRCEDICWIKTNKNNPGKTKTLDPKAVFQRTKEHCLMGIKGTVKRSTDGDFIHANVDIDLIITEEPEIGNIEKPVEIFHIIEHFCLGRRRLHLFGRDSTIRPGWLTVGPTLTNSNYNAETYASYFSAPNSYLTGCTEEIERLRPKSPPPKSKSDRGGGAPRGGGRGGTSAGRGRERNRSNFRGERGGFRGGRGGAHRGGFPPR
Structure (SMILES),IC50 [1],also measured
CNc1cc(N2CCCC(O)(CNC(=O)c3ccc(CN4CCCCC4)cc3)C2)ncn1 (stereo not drawn) [compound 1],430 µM,–
CNc1cc(N2CCCC(O)(CNC(=O)c3ccc(CN4CCC(C)CC4)cc3)C2)ncn1 (stereo not drawn) [compound 3],16 µM,–
CNc1cc(N2CCCC(O)(CNC(=O)c3ccc(CN4CCC(C)(C)CC4)cc3)C2)ncn1 (stereo not drawn) [compound 4],8.2 µM,fold improvement in affinity (IC50) vs compound 1 (relative to hit compound 1): 50 fold and 52.4 fold
CNc1cc(N2CCCC(O)(CNC(=O)c3ccc(CN4CCNCC4)cc3)C2)ncn1 (stereo not drawn) [compound 5],179 µM,–
CCC1CCN(Cc2ccc(C(=O)NCC3(O)CCCN(c4cc(NC)ncn4)C3)cc2)CC1 (stereo not drawn) [compound 6],230 µM,–
CNc1cc(N2CCCC(O)(CNC(=O)c3ccc(CN4CCC(C)(N)CC4)cc3)C2)ncn1 (stereo not drawn) [compound 7],42 µM,–
CNc1cc(N2CCCC(O)(CNC(=O)c3ccc(CN4CCC(C)(CN)CC4)cc3)C2)ncn1 (stereo not drawn) [compound 8],32 µM,–
CC1(C)CCN(Cc2ccc(C(=O)NCC3(O)CCCN(c4cc(NCc5cccc6nc[nH]c56)ncn4)C3)cc2)CC1 (stereo not drawn) [compound 9],2.1 µM,–
CC1(C)CCN(Cc2ccc(C(=O)NCC3(O)CCCN(c4cc(NCc5cccc6sccc56)ncn4)C3)cc2)CC1 (stereo not drawn) [compound 10],0.82 µM,fold improvement in affinity (IC50) vs compound 4: 10 fold
CC1(C)CCN(Cc2ccc(C(=O)NCC3(O)CCCN(c4cc(NCc5ccoc5)ncn4)C3)cc2)CC1 (stereo not drawn) [compound 11],> 10 µM,–
CC1(C)CCN(Cc2ccc(C(=O)NCC3(O)CCCN(c4cc(NCc5ccsc5)ncn4)C3)cc2)CC1 (stereo not drawn) [compound 12],1.8 µM,–
CC(Nc1cc(N2CCCC(O)(CNC(=O)c3ccc(CN4CCC(C)(C)CC4)cc3)C2)ncn1)c1ccccc1 (stereo not drawn) [compound 13],12 µM,–
CC1(C)CCN(Cc2ccc(C(=O)NCC3(O)CCCN(c4cc(NC(C)(C)c5ccccc5)ncn4)C3)cc2)CC1 (stereo not drawn) [compound 14],31 µM,–
CC1(C)CCN(Cc2ccc(C(=O)NCC3(O)CCCN(c4cc(NCc5cccc6ccccc56)ncn4)C3)cc2)CC1 (stereo not drawn) [compound 15],0.77 µM,fold improvement in affinity (IC50) vs compound 4: 10 fold
CC1(C)CCN(Cc2ccc(C(=O)NCC3(O)CCCN(c4cc(NCc5ccccc5)ncn4)C3)cc2)CC1 (stereo not drawn) [compound 16],1.7 µM,IC50 [2]: 1.2 µM; IC50 [3]: 7.1 µM; fold difference in activity between R and S configurations (R more active than S): ~6 fold; S/R Ratio: 5.9; fold improvement in affinity (IC50) vs compound 4: 4.8 fold
O=C(NCC1(O)CCCN(c2cc(NCc3ccccc3)ncn2)C1)c1ccc(CN2CCC3(CC2)CC3)cc1 (stereo not drawn) [compound 17],3.3 µM,–
CCC1(C)CCN(Cc2ccc(C(=O)NCC3(O)CCCN(c4cc(NCc5ccccc5)ncn4)C3)cc2)CC1 (stereo not drawn) [compound 18],4.7 µM,–
CCCCC1(C)CCN(Cc2ccc(C(=O)NCC3(O)CCCN(c4cc(NCc5ccccc5)ncn4)C3)cc2)CC1 (stereo not drawn) [compound 19],5.5 µM,–
CC1(CCO)CCN(Cc2ccc(C(=O)NCC3(O)CCCN(c4cc(NCc5ccccc5)ncn4)C3)cc2)CC1 (stereo not drawn) [compound 20],17.6 µM,–
CC(F)C1CCN(Cc2ccc(C(=O)NCC3(O)CCCN(c4cc(NCc5ccccc5)ncn4)C3)cc2)CC1 (stereo not drawn) [compound 21],23 µM,–
CC1(F)CC12CCN(Cc1ccc(C(=O)NCC3(O)CCCN(c4cc(NCc5ccccc5)ncn4)C3)cc1)CC2 (stereo not drawn) [compound 22],23 µM,–
CC(C)C1(O)CN(Cc2ccc(C(=O)NCC3(O)CCCN(c4cc(NCc5ccccc5)ncn4)C3)cc2)C1 (stereo not drawn) [compound 23],15 µM,–
CC1(O)CCN(Cc2ccc(C(=O)NCC3(O)CCCN(c4cc(NCc5ccccc5)ncn4)C3)cc2)CC1 (stereo not drawn) [compound 24],8.4 µM,–
CCCCN(Cc1ccc(C(=O)NCC2(O)CCCN(c3cc(NCc4ccccc4)ncn3)C2)cc1)C1CCCCC1 (stereo not drawn) [compound 26],> 10 µM,–

Structure (SMILES),IC50 [1],also measured
CC1(C)CN(Cc2ccc(C(=O)NCC3(O)CCCN(c4cc(NCc5ccccc5)ncn4)C3)cc2)C1 (stereo not drawn) [compound 27],9.3 µM,–
CCC(CC)CNCc1ccc(C(=O)NCC2(O)CCCN(c3cc(NCc4ccccc4)ncn3)C2)cc1 (stereo not drawn) [compound 28],7.4 µM,–
O=C(NCC1(O)CCCN(c2cc(NCc3ccccc3)ncn2)C1)c1ccc(CN2CC3(CCC3)C2)cc1 (stereo not drawn) [compound 29],1.6 µM,IC50 [2]: 0.53 µM; IC50 [3]: 1.3 µM; S/R Ratio: 2.5
CC(C)C1N(Cc2ccc(C(=O)NCC3(O)CCCN(c4cc(NCc5ccccc5)ncn4)C3)cc2)CC12CCC2 (stereo not drawn) [compound 30],0.13 µM,–
O=C(NCC1(O)CCCN(c2cc(NCc3ccccc3)ncn2)C1)c1ccc(CN2CC3(CCCC3)C2)cc1 (stereo not drawn) [compound 32],7.7 µM,–
CC(C)CNCc1ccc(C(=O)NCC2(O)CCCN(c3cc(NCc4ccccc4)ncn3)C2)cc1 (stereo not drawn) [compound 33],5.1 µM,–
CC(C)CCNCc1ccc(C(=O)NCC2(O)CCCN(c3cc(NCc4ccccc4)ncn3)C2)cc1 (stereo not drawn) [compound 34],17.7 µM,–
CC(C)(C)CNCc1ccc(C(=O)NCC2(O)CCCN(c3cc(NCc4ccccc4)ncn3)C2)cc1 (stereo not drawn) [compound 35],5 µM,–
O=C(NCC1(O)CCCN(c2cc(NCc3ccccc3)ncn2)C1)c1ccc(CNCC2CCC2)cc1 (stereo not drawn) [compound 36],5.2 µM,–
CCCN(Cc1ccc(C(=O)NCC2(O)CCCN(c3cc(NCc4ccccc4)ncn3)C2)cc1)C1CCCC1 (stereo not drawn) [compound 37],> 10 µM,–
CCCN(Cc1ccc(C(=O)NCC2(O)CCCN(c3cc(NCc4ccccc4)ncn3)C2)cc1)C1CCCCC1 (stereo not drawn) [compound 38],> 10 µM,–
CCCCN(Cc1ccc(C(=O)NCC2(O)CCCN(c3cc(NCc4ccccc4)ncn3)C2)cc1)C1CCCC1 (stereo not drawn) [compound 39],> 10 µM,–
O=C(NCC1(O)CCCN(c2cc(NCc3ccccc3)ncn2)C1)c1ccc(CN2CCCCC2)cc1 (stereo not drawn) [compound 40],14 µM,–
CC1CCN(Cc2ccc(C(=O)NCC3(O)CCCN(c4cc(NCc5ccccc5)ncn4)C3)cc2)C2CCCCC12 (stereo not drawn) [compound 41],12 µM,–
O=C(NCC1(O)CCCN(c2cc(NCc3ccccc3)ncn2)C1)c1ccc(CN2CCCC3CCCCC32)cc1 (stereo not drawn) [compound 42],8.4 µM,–
CSc1cc(CN2CCC(C)(C)CC2)ccc1C(=O)NCC1(O)CCCN(c2cc(NCc3ccccc3)ncn2)C1 (stereo not drawn) [compound 44],1.1 µM,–
CC1(C)CCN(Cc2ccc(C(=O)NCC3(O)CCCN(c4cc(NCc5ccccc5)ncn4)C3)cn2)CC1 (stereo not drawn) [compound 45],10 µM,–
CC1(C)CCN(Cc2ccc3c(NCC4(O)CCCN(c5cc(NCc6ccccc6)ncn5)C4)cccc3c2)CC1 (stereo not drawn) [compound 46],0.36 µM,IC50 [2]: 0.2 µM; IC50 [3]: 12 µM; S/R Ratio: 60.0; fold improvement in affinity (IC50) vs compound 16 (relative to reference compound 16): 5 fold and 4.7 fold
CC1(C)CCN(Cc2ccc3nc(CC4(O)CCCN(c5cc(NCc6ccccc6)ncn5)C4)[nH]c3c2)CC1 (stereo not drawn) [compound 47],2.9 µM,–
CC1(C)CCN(Cc2ccc(N3CC4(CCN(c5cc(NCc6ccccc6)ncn5)CC4)OCC3=O)cn2)CC1 [compound 48],5.1 µM,–
CC1(C)CCN(CCCCC(=O)NCC2(O)CCCN(c3cc(NCc4ccccc4)ncn3)C2)CC1 (stereo not drawn) [compound 49],60 µM,–
CC(C)C1N(Cc2ccc(C(=O)NCC3(O)CCCN(c4cc(NCc5ccccc5)ncn4)C3)c(O)c2)CC12CCC2 (stereo not drawn) [compound 50],0.27 µM,–
CNC(=O)c1cccc(CNc2cc(N3CCCC(O)(CNC(=O)c4ccc(CN5CCC(C)(C)CC5)cc4O)C3)ncn2)c1 (stereo not drawn) [compound 51],0.19 µM,–
CC1(C)CCN(Cc2ccc(C(=O)NCC3(O)CCCN(c4cc(NCc5cccc(S(N)(=O)=O)c5)ncn4)C3)c(O)c2)CC1 (stereo not drawn) [compound 52],0.3 µM,–

# — PMC10436262, “Structure-Based Design of Inhibitors of the m^6A-RNA Writer Enzyme METTL3” (ACS Bio & Med Chem Au, 2023)
